Results as given in patent US20250304644A1, “PEPTIDES TRIPLE AGONISTS OF GIP, GLP-1 AND GLP-2” (BAINAN BIOTECH APS, priority 2021, published 2025).
Like-named read-outs stand apart in the source and are kept apart here. *1 amine or outer side, *2 acyl side, *3 side chain or, on linkers, in order; H or OH if unused. Where no end group is shown, it is not given here. Side-chain parts run from the residue outwards. [ ]: non-standard residue; d: D form. The star is where a group is joined. C18 diacid = O=C(O)CCCCCCCCCCCCCCCCC(=O)*; γGlu = O=C(O)[C@H](CCC(=O)[*:2])N[*:1]; AEEA = NCCOCCOCC(=O)O; Aib = CC(C)(N)C(=O)O

Legend:
Format in all cases: cell-based
[1] = target: human glucagon receptor (GCGR) (Homo sapiens, UniProt P47871); assay: Gs activation measured as cAMP accumulation on human glucagon receptor (FIG. 1 radar plot); details: read-out: −p Log EC50 on human glucagon receptor (GCGR) (converted)
Chain of human glucagon receptor (GCGR) (P47871 26-477): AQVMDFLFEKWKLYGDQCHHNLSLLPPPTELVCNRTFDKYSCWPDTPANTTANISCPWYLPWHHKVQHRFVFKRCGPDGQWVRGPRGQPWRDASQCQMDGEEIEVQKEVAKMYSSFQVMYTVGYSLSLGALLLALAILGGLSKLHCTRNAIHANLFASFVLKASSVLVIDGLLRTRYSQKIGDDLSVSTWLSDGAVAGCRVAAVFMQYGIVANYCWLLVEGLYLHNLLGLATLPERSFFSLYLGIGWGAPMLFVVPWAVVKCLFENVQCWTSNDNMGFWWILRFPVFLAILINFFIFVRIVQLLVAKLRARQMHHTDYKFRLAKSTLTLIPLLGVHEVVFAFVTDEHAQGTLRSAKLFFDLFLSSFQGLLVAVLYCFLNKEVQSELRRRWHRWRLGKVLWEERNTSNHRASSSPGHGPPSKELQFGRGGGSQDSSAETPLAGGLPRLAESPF
Excerpt: Here, the compounds 20, 21, 22, 28, 30, 31,32, 33, 34, 35 are shown in terms of their potencies in Gs activation, measured as CAMP accumulation, depicted in a radar plot. The numbers refer to −p Log EC50 values. […] The outer rings correspond to higher potencies, the inner rings correspond to lower potencies.

[2] = target: T1, human SNAP-tagged GLP-1R (Homo sapiens, UniProt P43220); assay: Receptor internalization assay, HEK293A cells expressing human SNAP-tagged GLP-1R
T1 construct: expressed in transfected cells; host or cells: HEK293A
T1 sequence (P43220 24-463): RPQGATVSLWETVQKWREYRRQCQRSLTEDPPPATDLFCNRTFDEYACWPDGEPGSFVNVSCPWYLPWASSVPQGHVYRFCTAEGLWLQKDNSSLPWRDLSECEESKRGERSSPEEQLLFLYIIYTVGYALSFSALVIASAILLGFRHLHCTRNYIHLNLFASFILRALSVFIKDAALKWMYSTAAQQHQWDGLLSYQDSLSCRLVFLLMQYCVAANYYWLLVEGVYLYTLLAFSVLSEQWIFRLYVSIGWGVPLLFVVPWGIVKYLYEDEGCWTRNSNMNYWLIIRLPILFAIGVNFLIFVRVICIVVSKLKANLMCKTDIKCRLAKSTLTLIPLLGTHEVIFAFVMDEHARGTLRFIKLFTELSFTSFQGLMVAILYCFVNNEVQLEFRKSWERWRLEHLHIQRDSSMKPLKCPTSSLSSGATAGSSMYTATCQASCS

[3] = target: T2, human SNAP-tagged GIPR (Homo sapiens, UniProt P48546); assay: Receptor internalization assay, HEK293A cells expressing human SNAP-tagged GIPR
T2 construct: host or cells: HEK293A
T2 sequence (P48546 22-466): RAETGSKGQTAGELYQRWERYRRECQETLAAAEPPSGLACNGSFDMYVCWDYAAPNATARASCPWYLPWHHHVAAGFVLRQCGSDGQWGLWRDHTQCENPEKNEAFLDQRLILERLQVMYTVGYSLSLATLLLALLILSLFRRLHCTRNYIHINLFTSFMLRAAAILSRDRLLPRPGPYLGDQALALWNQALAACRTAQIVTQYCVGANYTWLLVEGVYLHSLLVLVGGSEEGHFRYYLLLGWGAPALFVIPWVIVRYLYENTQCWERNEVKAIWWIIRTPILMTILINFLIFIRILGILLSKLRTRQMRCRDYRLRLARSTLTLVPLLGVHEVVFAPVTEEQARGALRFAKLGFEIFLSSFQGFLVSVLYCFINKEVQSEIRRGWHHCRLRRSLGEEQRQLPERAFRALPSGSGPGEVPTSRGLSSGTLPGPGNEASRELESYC

[4] = target: T3, human GIPR (Homo sapiens, UniProt P48546); assay: cAMP assay (HitHunter) in transiently transfected COS-7 cells expressing human GIPR
T3 construct: host or cells: COS-7
T3 sequence (P48546 22-466): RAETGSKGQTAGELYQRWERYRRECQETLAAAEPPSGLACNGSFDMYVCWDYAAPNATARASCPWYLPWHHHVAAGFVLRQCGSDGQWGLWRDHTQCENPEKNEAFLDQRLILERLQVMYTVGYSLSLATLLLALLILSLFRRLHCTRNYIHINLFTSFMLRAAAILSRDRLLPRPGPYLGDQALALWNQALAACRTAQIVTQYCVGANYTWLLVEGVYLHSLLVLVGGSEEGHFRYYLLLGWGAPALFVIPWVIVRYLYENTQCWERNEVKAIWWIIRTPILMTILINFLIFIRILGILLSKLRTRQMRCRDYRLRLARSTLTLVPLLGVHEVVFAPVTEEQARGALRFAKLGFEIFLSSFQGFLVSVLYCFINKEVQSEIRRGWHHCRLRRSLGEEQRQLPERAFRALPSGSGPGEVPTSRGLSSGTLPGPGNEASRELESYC

[5] = target: T4, human SNP-tagged GLP-2R (Homo sapiens, UniProt O95838); assay: Receptor internalization assay, HEK293A cells expressing human SNAP-tagged GLP-2R
T4 construct: expressed in transfected cells; host or cells: HEK293A
T4 sequence (O95838 1-553): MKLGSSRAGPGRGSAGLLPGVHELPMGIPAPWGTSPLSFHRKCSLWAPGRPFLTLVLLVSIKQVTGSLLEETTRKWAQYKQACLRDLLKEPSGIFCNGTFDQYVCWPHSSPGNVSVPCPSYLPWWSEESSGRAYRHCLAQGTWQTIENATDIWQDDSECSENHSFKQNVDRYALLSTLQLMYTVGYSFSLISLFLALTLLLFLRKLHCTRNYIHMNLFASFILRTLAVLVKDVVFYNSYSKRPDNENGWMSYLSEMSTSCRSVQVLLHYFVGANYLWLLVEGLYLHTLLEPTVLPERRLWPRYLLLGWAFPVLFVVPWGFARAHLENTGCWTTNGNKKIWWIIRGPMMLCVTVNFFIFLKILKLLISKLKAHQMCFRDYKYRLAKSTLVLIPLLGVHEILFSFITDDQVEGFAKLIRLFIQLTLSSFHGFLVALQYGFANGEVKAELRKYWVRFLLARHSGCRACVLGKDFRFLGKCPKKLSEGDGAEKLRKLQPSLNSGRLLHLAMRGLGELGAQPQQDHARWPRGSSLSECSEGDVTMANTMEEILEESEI

[6] = target: T5, human GLP-2R (Homo sapiens, UniProt O95838); assay: cAMP assay (HitHunter) in transiently transfected COS-7 cells expressing human GLP-2R
T5 construct: host or cells: COS-7
T5 sequence (O95838 1-553): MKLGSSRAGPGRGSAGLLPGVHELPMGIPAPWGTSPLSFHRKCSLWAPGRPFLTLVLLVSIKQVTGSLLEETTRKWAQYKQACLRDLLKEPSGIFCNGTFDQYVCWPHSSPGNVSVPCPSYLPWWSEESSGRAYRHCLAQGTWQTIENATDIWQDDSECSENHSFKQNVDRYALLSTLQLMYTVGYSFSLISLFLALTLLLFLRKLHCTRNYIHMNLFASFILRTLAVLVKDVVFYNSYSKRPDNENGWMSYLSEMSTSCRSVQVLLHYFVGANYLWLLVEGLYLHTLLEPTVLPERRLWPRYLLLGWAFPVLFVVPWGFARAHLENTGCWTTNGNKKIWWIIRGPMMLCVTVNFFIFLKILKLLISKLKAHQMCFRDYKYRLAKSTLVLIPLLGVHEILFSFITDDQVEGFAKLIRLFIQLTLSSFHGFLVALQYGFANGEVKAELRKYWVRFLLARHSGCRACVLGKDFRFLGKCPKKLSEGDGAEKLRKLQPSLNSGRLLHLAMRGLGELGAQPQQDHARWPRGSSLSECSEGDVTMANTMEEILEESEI

[7] = target: T6, human GLP-1R (Homo sapiens, UniProt P43220); assay: cAMP assay (HitHunter) in transiently transfected COS-7 cells expressing human GLP-1R; details: for EC50: cAMP, COS-7 cells, human GLP-1R
T6 construct: host or cells: COS-7
T6 sequence (P43220 24-463): as the sequence (P43220 24-463) above

[8] = AUC of sigmoid curves up to 1 μM, 60 minutes at 37° C.

EC50 [1]: > 100000 pM
Absolute hGLP-1R internalization (AUC) [2, 8]: 78.81
GLP-1R internalization (in words) ([2]; compared to native GLP-1): comparable to native GLP-1 and GLP-2
Relative hGLP-1R internalization (%) ([2]; relative to hGLP-1 = 100): 93.70%
Absolute hGIPR internalization (AUC) [3, 8]: 7.0
Relative hGIPR internalization (%) ([3]; relative to hGIP 1-42 = 100): 19%
Emax ([4]; COS-7, normalized to highest concentration of the endogenous ligand, read-out: Efficacy GIPR (Emax)): 93%
EC50 ([4]; cAMP, COS-7 cells, human GIPR): 1.12 nM
Absolute hGLP-2R internalization (AUC) [5, 8]: 38.0
GLP-2R internalization (in words) ([5]; compared to native GLP-2): comparable to native GLP-1 and GLP-2
Relative hGLP-2R internalization (%) ([5]; relative to native ligand = 100): 78.2%
Emax ([6]; COS-7, normalized to highest concentration of the endogenous ligand, read-out: Efficacy GLP-2R (Emax)): 93%
EC50 ([6]; cAMP, COS-7 cells, human GLP-2R, read-out: EC50 (nM) GLP-2R): 0.6 nM
Emax ([7]; COS-7, normalized to highest concentration of the endogenous ligand, read-out: Efficacy GLP-1R (Emax)): 116%
EC50 ([7]; read-out: EC50 (nM) GLP-1R): 0.04 nM
EC50 ([7]; read-out: logEC50 GLP-1R (converted)): 0.0316 nM
Substance: HADGTFTSDYST[Aib]LDK([AEEA-AEEA-γGlu-C18 diacid])LAARDFINWLIQTKGKKNDWKHNITQ-OH [Compound 22]
GIPR internalization (in words) ([3]; compared to native GIP): reduced internalization compared to native GIP
